# Laboratory results from BindingDB's records for doi:10.1021/jm970550g (Northwestern University, 1998).
# Assay: Compound was tested for binding affinity against neuronal nitric oxide synthase(nNOS)
row,Ki,SMILES
1,200 nM,C=CCNC(=N)NCCCC(N)C(C)=O (stereo not drawn) [1-Acetyl-4-(N'-allyl-guanidino)-butyl-ammonium]
2,430 nM,C#CCNC(=N)NCCCC(N)C(=O)O (stereo not drawn) [2-Amino-5-(N'-prop-2-ynyl-guanidino)-pentanoic acid]

row,SMILES,Ki
1,CCNC(=N)NCCCC(N)C(=O)O (stereo not drawn) [2-Amino-5-(N'-ethyl-guanidino)-pentanoic acid],16000 nM
